# In ChEMBL document CHEMBL3774356, “Definitive Metabolite Identification Coupled with Automated Ligand Identification System (ALIS) Technology: A Novel Approach to Uncover Structure-Activity Relationships and Guide Drug Design in a Factor IXa Inhibitor Program” (J Med Chem, 2016):
# Columns and labels:
# Coagulation factor IX = Coagulation factor IX (Homo sapiens, UniProt P00740); assay: Inhibition of human factor 9a using CH3SO2-DCHG-Gly-Arg-AFC.AcOH as substrate preinubated for 30 mins followed by substrate addition measured after 1 hr by fluorescence assay
# Rattus norvegicus = assay: Dose normalized AUC in Hans-Wistar rat at 2 mg/kg, po; format: ADME, organism-based; conditions: in vivo
# Liver microsome [1] = assay: Drug metabolism in human liver microsomes assessed as (R)-2,6-dichloro-N-(2-(3-fluorophenyl)-2-(2-methyl-1H-benzo[d]imidazol-5-yl)ethyl)-4-(3-(hydroxymethyl)-1H-1,2,4-triazol-1-yl)benzamide formation after 4 hrs by LC-MS/MS analysis; format: ADME
# Liver microsome [2] = assay: Drug metabolism in human liver microsomes assessed as (R)-2,6-dichloro-N-(2-(3-fluorophenyl)-2-hydroxy-2-(2-methyl-1H-benzo[d]imidazol-5-yl)ethyl)-4-(3-methyl-1H-1,2,4-triazol-1-yl)benzamide formation after 4 hrs by LC-MS/MS analysis; format: ADME
# Liver microsome [3] = assay: Drug metabolism in Sprague-Dawley rat liver microsomes assessed as (R)-2,6-dichloro-N-(2-(3-fluorophenyl)-2-(2-methyl-1H-benzo[d]imidazol-5-yl)ethyl)-4-(3-(hydroxymethyl)-1H-1,2,4-triazol-1-yl)benzamide formation after 4 hrs by LC-MS/MS analysis; format: ADME
# Liver microsome [4] = assay: Drug metabolism in Sprague-Dawley rat liver microsomes assessed as (R)-2,6-dichloro-N-(2-(3-fluorophenyl)-2-hydroxy-2-(2-methyl-1H-benzo[d]imidazol-5-yl)ethyl)-4-(3-methyl-1H-1,2,4-triazol-1-yl)benzamide formation after 4 hrs by LC-MS/MS analysis; format: ADME
# Liver microsome [5] = assay: Drug metabolism in beagle dog liver microsomes assessed as (R)-2,6-dichloro-N-(2-(3-fluorophenyl)-2-(2-methyl-1H-benzo[d]imidazol-5-yl)ethyl)-4-(3-(hydroxymethyl)-1H-1,2,4-triazol-1-yl)benzamide formation at 100 uM after 4 hrs by LC-MS/MS analysis; format: ADME, Canis lupus familiaris
# Liver microsome [6] = assay: Drug metabolism in beagle dog liver microsomes assessed as (R)-2,6-dichloro-N-(2-(3-fluorophenyl)-2-hydroxy-2-(2-methyl-1H-benzo[d]imidazol-5-yl)ethyl)-4-(3-methyl-1H-1,2,4-triazol-1-yl)benzamide formation at 100 uM after 4 hrs by LC-MS/MS analysis; format: ADME, Canis lupus familiaris
# Liver microsome [7] = assay: Drug level in human liver microsomes treated with (R)-2,6-Dichloro-N-(2-(3-fluorophenyl)-2-(2-methyl-1Hbenzo[d]imidazol-5-yl)ethyl)-4-(3-methyl-1H-1,2,4-triazol-1-yl)-benzamide after 4 hrs by LC-MS/MS analysis; format: ADME
# Liver microsome [8] = assay: Drug level in Sprague-Dawley rat liver microsomes treated with (R)-2,6-Dichloro-N-(2-(3-fluorophenyl)-2-(2-methyl-1Hbenzo[d]imidazol-5-yl)ethyl)-4-(3-methyl-1H-1,2,4-triazol-1-yl)-benzamide after 4 hrs by LC-MS/MS analysis; format: ADME
# [9] = Retention time of the compound by size exclusion chromatography; format: physicochemical
# Liver microsome [10] = assay: Drug level in beagle dog liver microsomes treated with (R)-2,6-Dichloro-N-(2-(3-fluorophenyl)-2-(2-methyl-1Hbenzo[d]imidazol-5-yl)ethyl)-4-(3-methyl-1H-1,2,4-triazol-1-yl)-benzamide at 100 uM after 4 hrs by LC-MS/MS analysis; format: ADME, Canis lupus familiaris
# Sequence of Coagulation factor IX (P00740 47-191 limits assumed): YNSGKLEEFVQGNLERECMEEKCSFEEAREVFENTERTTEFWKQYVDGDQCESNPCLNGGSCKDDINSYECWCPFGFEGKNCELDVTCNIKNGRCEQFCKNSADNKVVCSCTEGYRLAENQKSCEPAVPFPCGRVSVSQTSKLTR
# Sequence of Coagulation factor IX (P00740 227-461 limits assumed): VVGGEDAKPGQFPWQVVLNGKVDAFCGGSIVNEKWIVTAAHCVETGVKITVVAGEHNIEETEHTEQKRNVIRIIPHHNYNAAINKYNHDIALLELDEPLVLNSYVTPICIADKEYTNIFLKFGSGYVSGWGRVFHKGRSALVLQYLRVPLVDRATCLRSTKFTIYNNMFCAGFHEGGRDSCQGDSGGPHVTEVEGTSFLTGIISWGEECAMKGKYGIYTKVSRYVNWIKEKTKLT
Structure (SMILES),IC50 (Coagulation factor IX) [nM],AUC/dose (Rattus norvegicus) [µM·h/mg/kg],Drug metabolism (Liver microsome [1]),Drug metabolism (Liver microsome [2]),Drug metabolism (Liver microsome [3]),Drug metabolism (Liver microsome [4]),Drug metabolism (Liver microsome [5]),Drug metabolism (Liver microsome [6]),Drug metabolism (Liver microsome [7]),Drug metabolism (Liver microsome [8]),Retention_time [9] [min],Drug metabolism (Liver microsome [10]),Ki (Coagulation factor IX) [nM]
Cc1ncn(-c2cc(Cl)c(C(=O)NC[C@@H](c3cccc(F)c3)c3ccc4[nH]c(C)nc4c3)c(Cl)c2)n1,9.99,0.097,metabolite_detected,metabolite_detected,metabolite_detected,metabolite_detected,metabolite_detected,metabolite_detected,,,,,
Cc1ncn(-c2cc(Cl)c(C(=O)NC[C@@H](c3ccc(O)c(F)c3)c3ccc4[nH]c(C)nc4c3)c(Cl)c2)n1,1.86,,,,,,,,metabolite_detected,metabolite_detected,3.59,,
Cc1nc2cc([C@@H](CNC(=O)c3c(Cl)cc(-n4cnc(CO)n4)cc3Cl)c3cccc(F)c3)ccc2[nH]1,11,,,,,,,,metabolite_detected,metabolite_detected,3.84,metabolite_detected,
Cc1ncn(-c2cc(Cl)c(C(=O)NC[C@@H](c3cccc(F)c3)c3cc(F)c4[nH]c(C)nc4c3)c(Cl)c2)n1,,,,,,,,,,,,,10.6
"Cc1ncn(-c2cc(Cl)c(C(=O)NCC(O)(c3cccc(F)c3)c3ccc4[nH]c(C)nc4c3)c(Cl)c2)n1 (single isomer, unassigned)",63.9,,,,,,,,metabolite_detected,metabolite_detected,4.24,metabolite_detected,
